± gives the expanded uncertainty stated by the source.
Key:
[1] = 298.15 K; 101.33 kPa; Liquid
[2] = xn = mol fraction of the nth substance listed; conditions: 298.15 K, 101 kPa, Liquid

Cc1ccccc1C [1,2-dimethylbenzene]
[1]
Conditions	mass density [kg/m3]	viscosity [mPa·s]
–	874.89 ± 0.48	0.7506 ± 0.013

Cc1ccccc1C [1,2-dimethylbenzene] + CCCCCC
[2]
Conditions	mass density [kg/m3]	viscosity [mPa·s]
x2 = 0.052	863.09 ± 0.48	0.678 ± 0.012
x2 = 0.1413	842.86 ± 0.49	0.5944 ± 0.011
x2 = 0.2482	818.74 ± 0.51	0.5239 ± 0.0096
x2 = 0.2901	809.33 ± 0.52	0.493 ± 0.0091
x2 = 0.355	794.79 ± 0.53	0.462 ± 0.0087
x2 = 0.4004	784.66 ± 0.54	0.4425 ± 0.0084
x2 = 0.4815	766.65 ± 0.56	0.4126 ± 0.0079
x2 = 0.51	760.35 ± 0.56	0.4031 ± 0.0078
x2 = 0.5856	743.71 ± 0.58	0.3816 ± 0.0075
x2 = 0.6351	732.88 ± 0.59	0.3711 ± 0.0073
x2 = 0.6753	724.12 ± 0.6	0.3632 ± 0.0072
x2 = 0.7858	700.23 ± 0.63	0.3344 ± 0.0067
x2 = 0.8317	690.38 ± 0.64	0.3264 ± 0.0066
x2 = 0.9014	675.52 ± 0.66	0.314 ± 0.0064

Cc1cccc(C)c1 [1,3-dimethylbenzene]
[1]
Conditions	mass density [kg/m3]	viscosity [mPa·s]
–	859.78 ± 0.49	0.583 ± 0.01

Cc1cccc(C)c1 [1,3-dimethylbenzene] + CCCCCC
[2]
Conditions	viscosity [mPa·s]
x2 = 0.1329	0.4984 ± 0.0093
x2 = 0.1519	0.4896 ± 0.0091
x2 = 0.2717	0.4418 ± 0.0084
x2 = 0.339	0.4221 ± 0.0081
x2 = 0.4303	0.3978 ± 0.0077
x2 = 0.448	0.3935 ± 0.0077
x2 = 0.5734	0.3652 ± 0.0072
x2 = 0.643	0.3513 ± 0.007
x2 = 0.6663	0.3473 ± 0.007
x2 = 0.719	0.3389 ± 0.0068
x2 = 0.8049	0.3238 ± 0.0066
x2 = 0.873	0.3175 ± 0.0065
x2 = 0.9278	0.3115 ± 0.0064

Cc1ccc(C)cc1 [1,4-dimethylbenzene]
[1]
Conditions	mass density [kg/m3]	viscosity [mPa·s]
–	856.51 ± 0.5	0.5999 ± 0.011

Cc1ccc(C)cc1 [1,4-dimethylbenzene] + CCCCCC
[2]
Conditions	mass density [kg/m3]	viscosity [mPa·s]
x2 = 0.0423	847.8 ± 0.5	0.566 ± 0.01
x2 = 0.1073	834.45 ± 0.51	0.5235 ± 0.0096
x2 = 0.2137	812.6 ± 0.52	0.4702 ± 0.0088
x2 = 0.2956	795.81 ± 0.53	0.4378 ± 0.0083
x2 = 0.3769	779.21 ± 0.55	0.4119 ± 0.0079
x2 = 0.4201	770.42 ± 0.56	0.3998 ± 0.0077
x2 = 0.5355	747.03 ± 0.58	0.3717 ± 0.0073
x2 = 0.562	741.69 ± 0.58	0.3654 ± 0.0072
x2 = 0.6427	725.47 ± 0.6	0.3502 ± 0.007
x2 = 0.7455	704.95 ± 0.62	0.3324 ± 0.0067
x2 = 0.7909	695.94 ± 0.63	0.3256 ± 0.0066
x2 = 0.8792	678.48 ± 0.66	0.313 ± 0.0064
x2 = 0.9599	662.62 ± 0.68	0.3024 ± 0.0063

CCc1ccccc1 [ethylbenzene]
[1]
Conditions	mass density [kg/m3]	viscosity [mPa·s]
–	862.37 ± 0.49	0.6369 ± 0.011

CCc1ccccc1 [ethylbenzene] + CCCCCC
[2]
Conditions	viscosity [mPa·s]
x2 = 0.0437	0.6071 ± 0.011
x2 = 0.0884	0.5751 ± 0.01
x2 = 0.183	0.5169 ± 0.0095
x2 = 0.2262	0.4791 ± 0.0089
x2 = 0.2774	0.4672 ± 0.0088
x2 = 0.3283	0.445 ± 0.0084
x2 = 0.3784	0.4234 ± 0.0081
x2 = 0.4359	0.4047 ± 0.0078
x2 = 0.488	0.3902 ± 0.0076
x2 = 0.5429	0.3761 ± 0.0074
x2 = 0.5916	0.3654 ± 0.0072
x2 = 0.6534	0.3527 ± 0.007
x2 = 0.705	0.3426 ± 0.0069
x2 = 0.7644	0.3326 ± 0.0067
x2 = 0.809	0.325 ± 0.0066
x2 = 0.8882	0.313 ± 0.0064
x2 = 0.9478	0.3046 ± 0.0063

CCCCCC [hexane]
[1]
Conditions	mass density [kg/m3]	viscosity [mPa·s]
–	654.7 ± 0.7	0.2973 ± 0.0062

From the NIST ThermoML archive (doi:10.1007/s10765-009-0622-2)
